Here are results for three compounds from patent EP3981864A1, “DETERGENT COMPOSITION” (priority 2020, dated 2022).

The target of test [1] is T1, Arabidopsis thaliana αDOX (SEQ ID NO: 10), fatty acid alpha-dioxygenase, Q9C9U3, variant with N-terminal His-tag, MBP tag and TEV site SEQ ID NO: 267 (comparati (Arabidopsis thaliana, UniProt Q9C9U3)).
T1 construct: His-tag (N); MBP tag (N); TEV protease cleavage site (N); made in house; host or cells: Escherichia coli BL21 (DE3), modified pET28a
T1 sequence (Q9C9U3 21-631): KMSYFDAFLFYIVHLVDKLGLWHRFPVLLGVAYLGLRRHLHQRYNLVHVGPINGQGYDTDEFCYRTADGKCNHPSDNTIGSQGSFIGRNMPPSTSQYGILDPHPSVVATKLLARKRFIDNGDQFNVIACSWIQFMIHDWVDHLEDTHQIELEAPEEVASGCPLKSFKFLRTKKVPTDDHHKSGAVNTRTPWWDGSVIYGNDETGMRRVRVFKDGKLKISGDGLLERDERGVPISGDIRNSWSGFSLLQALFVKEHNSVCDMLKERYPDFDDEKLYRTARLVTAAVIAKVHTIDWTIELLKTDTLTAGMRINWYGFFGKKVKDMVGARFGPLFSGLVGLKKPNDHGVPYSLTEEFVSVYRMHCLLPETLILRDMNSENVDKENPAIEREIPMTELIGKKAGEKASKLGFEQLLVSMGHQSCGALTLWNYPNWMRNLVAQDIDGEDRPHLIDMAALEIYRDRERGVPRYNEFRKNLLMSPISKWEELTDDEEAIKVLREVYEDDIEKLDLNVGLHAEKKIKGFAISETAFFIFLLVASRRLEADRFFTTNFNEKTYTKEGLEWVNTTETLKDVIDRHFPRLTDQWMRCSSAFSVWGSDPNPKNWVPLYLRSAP
The test is described as follows: Alpha-dioxygenase activity assay (oxygen consumption, TON). In kind it is biochemical. The settings on record: fatty acid 100 µM, enzyme 6 ppm, 50 mM HEPES pH 9.0, 37°C; initial rate of oxygen consumption / enzyme concentration. From the text:
Arabidopsis thaliana αDOX (SEQ ID NO: 10) is a fatty acid alpha-dioxygenase that converts fatty acids into the corresponding 2-hydroperoxy fatty acids and is included as a comparative example of the present invention. A codon optimized gene (SEQ ID NO: 266) encoding for an alpha-dioxygenase variant was designed and synthesized by Genscript. After synthesis, the gene was cloned into a modified version of pET28a, such as the final plasmid encoded for a αDOX variant including an N-terminal amino acid sequence containing a His-tag, an MBP tag, and a TEV protease cleavage site (SEQ ID NO: 267). For heterologous expression, Escherichia coli BL21 (DE3) cells were transformed with the recombinant plasmid and a single colony was inoculated into LB medium containing kanamycin (50 mg/L). A pre-starter culture was then inoculated into flasks containing TB Media supplemented with kanamycin (50 mg/L) and incubated at 37 °C. At an OD600nm about 3.8, IPTG (final concentration 0.1 mM) and 5-aminolevulinic acid (final concentration 0.25 mM) were added to the culture and further incubated at 16 °C for 16 h. Cells were harvested by centrifugation and the pellet was lysed. After centrifugation, the supernatant was collected, and the protein was purified by one-step purification using Ni-NTA affinity chromatography and standard protocols known in the art. The protein was stored in 1×PBS buffer containing 10% Glycerol and at pH 7.4. The purified enzyme was stored at -80 °C until use.
Reactions with alpha-dioxygenases were performed as follows. An aliquot of fatty acid in ethanol (final concentration 100 µM) was resuspended in buffer (50 mM HEPES at pH 9.0) in a scintillation vial. The reaction was started by addition of enzyme (final concentration 6 ppm). The reaction was incubated for up to 10 minutes at 37°C with 200 rpm agitation and the conversion was monitored using an oxygen sensor. The TON (in s-1) were calculated as the ratio between the initial rate of oxygen consumption (in µM/s) and the concentration of enzyme (in µM). […]

Test [2] relates to Phaeosphaeria nodorum αDOX (SEQ ID NO: 2), fatty acid alpha-dioxygenase, Q0URU2, N-terminal His-tag variant SEQ ID NO: 251. The description is as above. It is filed as biochemical. The note with it: fatty acid 100 µM, enzyme 6 ppm, 50 mM HEPES pH 9.0, 37°C; initial rate of oxygen consumption / enzyme concentration. From the text:
Phaeosphaeria nodorum αDOX (SEQ ID NO: 2) is a fatty acid alpha-dioxygenase that converts fatty acids into the corresponding 2-hydroperoxy fatty acids and is included as an example of the present invention. A codon optimized gene (SEQ ID NO: 250) encoding for an alpha-dioxygenase variant (SEQ ID NO: 251), including an N-terminal amino acid sequence containing a His-tag was designed and synthesized by Genscript. After gene synthesis, the protein was expressed and purified. In brief, the complete synthetic gene sequence was subcloned into a pET30a vector using the NdeI/HindIII cloning sites. For heterologous expression, Escherichia coli BL21 (DE3) cells were transformed with the recombinant plasmid and a single colony was inoculated into LB medium containing kanamycin (50 mg/L). A pre-starter culture was then inoculated into flasks containing Magic Media (Thermo Fisher, Catalog # K6803) supplemented with kanamycin (50 mg/L) and incubated at 16 °C for 72 h. At an OD600nm = 0.5 - 1.0, 5-aminolevulinic acid (final concentration 0.5 mM) was added. Cells were harvested by centrifugation at 5000 rpm and 4°C and the pellet was lysed using a bacterial cell lysis buffer (B-PER - Themo Fisher, Waltham, MA). After centrifugation, the supernatant was collected, and the protein was purified by one-step purification using HisPur™ Ni-NTA Spin Columns (Thermo Scientific, Catalog # 88226) and standard protocols known in the art. The protein was concentrated using a 10 kDa MW cutoff Amicon Ultra centrifugal filter unit (Millipore Sigma, Catalog# UFC901024), followed by desalting using a disposable PD-10 desalting column (GE Healthcare Life Sciences, Catalog# 17085101) and a buffer containing 50 mM Tris-HCl, 500 mM NaCl, and 10% Glycerol at pH 8.0. […]
Reactions with alpha-dioxygenases were performed as follows. […] The reaction was incubated for up to 10 minutes at 37°C with 200 rpm agitation and the conversion was monitored using an oxygen sensor. The TON (in s-1) were calculated as the ratio between the initial rate of oxygen consumption (in µM/s) and the concentration of enzyme (in µM). […]

Take `CCCCCCCCCCCCCCCCCC(=O)O` [Stearic Acid]: the figures for the “Stearic Acid, TON” value in test [1] and in test [2] were 0.13 s⁻¹ and 8.80 s⁻¹, respectively.
As for `CCCCCCCC/C=C\CCCCCCCC(=O)O` [Oleic Acid], the “Oleic Acid, TON” value in test [1] is 0.13 s⁻¹; in test [2], 0.99 s⁻¹.
As to `CCCCCCCCCCCCCCCC(=O)O` [Palmitic Acid], the “Palmitic Acid, TON” value was 0.54 s⁻¹ in test [1] and 20.63 s⁻¹ in test [2].
